The record followed here is ChEMBL document CHEMBL4811288, “Linderapyrone: A Wnt signal inhibitor isolated from Lindera umbellata” (Bioorg Med Chem Lett, 2021).

pIC50: −log10 of the molar value. Active and inactive are the calls of the source. The calls are words filed in the database; no cut-off is given here.

Test [1] deals with HEK293. Briefly: Inhibition of Wnt signalling in HEK293 cells harbouring TCF/beta-catenin luciferase reporter gene assessed as TCF/beta-catenin transcriptional activity at 30 to 60 uM by TOPFlash luciferase assay. It counts as cell-based. Conditions: Homo sapiens, dose 30-60 µM.
In test [2] the test system is HT-29. As to the kind of experiment: Cytotoxicity against human HT-29 cells assessed as cell viability at 1.563 to 50 uM measured after 72 hrs by plate reader method. Format: functional, cell-based. The conditions noted are these: for pIC50: HT-29, 72 h.

Take `CC(C)[C@H]1CC[C@@]2(C)C[C@@H]1c1c(cc(/C=C/c3cccs3)oc1=O)O2`: the result in test [1] and in test [2] (dose 1.563-50 µM) was Active.

For the molecule `Cc1cc(O)cc(=O)o1`, the outcome in test [1] was inactive. For `CC(C)[C@@H]1CC[C@@]2(C)C[C@@H]1c1c(cc(/C=C/c3ccccc3)oc1=O)O2`, the result in test [1] was Active. The negative logarithm of the IC50 (pIC50) in test [2] is 4.49. With `Cc1cc2c(c(=O)o1)[C@H]1C[C@](C)(CC[C@H]1C(C)C)O2`, the outcome in test [1] was Active. For `COc1cc(O)c(C(=O)/C=C/c2ccccc2)c2c1[C@@H]1[C@@H](C(C)C)CC[C@](C)(O)[C@@H]1O2`, the result in test [1] was inactive. `O=C1[C@H](Cc2ccc(O)cc2)N2C(=O)CCN(C(=O)NCc3ccccc3)[C@H]2CN1Cc1cccc2ccccc12`: the pIC50 in test [2] is 4.97. As for `CC(C)[C@H]1CC[C@]2(C)C[C@H]1c1c(cc(/C=C/c3ccccc3)oc1=O)O2`, in test [1], the outcome was Active. Take `CC(C)[C@H]1CC[C@@]2(C)C[C@@H]1c1c(cc(/C=C/c3ccccc3)oc1=O)O2`: the result in test [1] was Active. Besides, in test [2], the negative-log IC50 (pIC50) was 5.09. Regarding `CC1=CC(=O)C(C(C)C)CC1` (racemic), the result in test [1] was inactive. On the same count and under the same terms, to `Cc1cc2c(c(=O)o1)[C@H]1C[C@](C)(CC[C@@H]1C(C)C)O2` belongs “Active”; to `COc1cc(/C=C/c2ccccc2)oc(=O)c1`, “inactive”.
